Values quoted from earlier work in patent publication US7138151B2, “Calcium-fortified acidic beverages” (Unilab Pharmatech, Ltd., priority 2002, dated 2006).

Details: initially clear metastable solution from citric acid and calcium base

Question: With `O=C([O-])CC(O)(CC(=O)[O-])C(=O)[O-].O=C([O-])CC(O)(CC(=O)[O-])C(=O)[O-].[Ca+2].[Ca+2].[Ca+2]` [in-situ solubilized calcium citrate, calcium citrate] as the compound, how does the “time at which calcium citrate starts to precipitate out of solution” value read?
Answer: The value was no more than 24 h.
